In article PMC2888773 (Cellular microbiology, 2010):

Molecular target: Ov-CF-1 (cathepsin F) (Opisthorchis viverrini, UniProt Q5PXS3)
Test: fluorogenic release of NHMec
Type: biochemical
Conditions: autoactivation at pH 4.5, 37 °C, 1 mM DTT, 1 mM EDTA

SMILES: Cc1cc(=O)oc2cc(NC(=O)[C@H](CCCNC(=N)N)NC(=O)[C@H](CC(C)C)NC(=O)OCc3ccccc3)ccc12 [Z-Leu-Arg-NHMec]
- fluorogenic release of NHMec (ex 380 / em 460 nm): The rate of hydrolysis of Z-Leu-Arg-NHMec
